“Also recorded” adds a separate entry of the source.
Legend:
[1] = system: TF-induced platelet aggregation in human platelet-rich plasma; test: TF-induced platelet aggregation assay (time delay / lag time) in human platelet-rich plasma; assay type: cell-based; conditions: human PRP; for 2×Base value (concentration required to double the time for TF-induced platelet aggregation): time delay of TF-induced platelet aggregation; for time delay of platelet aggregation: 0 μM = 75 seconds
Experimental: The remaining samples were then centrifuged at […] for 10 min to obtain platelet-poor plasma (PPP). Platelet count was adjusted to 2-2.5×10^8 cells/ml with platelet-poor plasma.
PRP (275 μl) sample was briefly mixed with 25 μl of 36 mg/ml pefabloc. Various compounds (in a volume of 1.2 μl) were added and incubated at 37° C. for 3 min in a cylindrical glass cuvette. Platelet aggregation was induced by 4 μl of Innovin®-CaCl2 mixture and measured under continuous stirring at 1000 rpm in a PA-200 platelet aggregation analyzer (Kowa, Tokyo, Japan). Platelet-poor plasma was used as a reference. Platelet aggregation curves defined by changes in light transmission over time were recorded for 15 min. The lag time was defined as the time from CaCl2 addition until the light transmittance reached 1%. The concentration of Innovin® and CaCl2 was adjusted for each sample so that the average control lag time was from 50 to 70 seconds.

[2] = system: thrombus formation in carotid artery; test: Rabbit ECAT model; assay type: in vivo; conditions: i.v. infusion, drug concentration maintaining total blood flow at 80% of baseline
Experimental: Briefly, male, New Zealand, white rabbits were anesthetized with ketamine (50 mg/kg+50 mg/kg/h i.m.) and xylazine (10 mg/kg+10 mg/kg/h i.m.). These anesthetics were supplemented as needed. An electromagnetic flow probe was placed on a segment of an isolated carotid artery to monitor blood flow. Thrombus formation was induced by electrical stimulation of the carotid artery for 3 min at 4 mA using an external stainless steel bipolar electrode. […] Plasma concentrations were determined in blood samples taken at the end of the experiment by liquid chromatography-tandem mass spectrometry.
Carotid blood flow was measured continuously over the 90-min period of thrombus formation and total carotid blood flow was calculated as an area under the carotid blood flow-time curve. Preservation of total CBF relative to sustained baseline flow was used to assess antithrombotic activity. The drug concentrations which maintained total blood flow at 80% of baseline (ED80) was the common comparator among antithrombotic agents.

| SMILES | effect on the time delay of TF-induced platelet aggregation (in words) [1] | 2×Base value (concentration required to double the time for TF-induced platelet aggregation) [1] | ED80 [2] | also measured |
| --- | --- | --- | --- | --- |
| CNc1ncnc2c1ncn2[C@H]1C[C@H](OP(=O)(O)O)[C@@H](COP(=O)(O)O)O1 [N6-methyl-2′-deoxyadenosine-3′,5′-bisphosphate, reference compound] | no effect |  |  |  |
| CC(C)(C)c1ccccc1Oc1ncccc1NC(=O)Nc1ccc(OC(F)(F)F)cc1 [Compound F, 1-[2-(2-tert-Butyl-phenoxy)-pyridin-3-yl]-3-(4-trifluoromethoxy-phenyl)-urea] | no effect | ~0 µM |  |  |
| CC(C)CC(=O)Nc1cc(-c2ccc(C(N)=O)cc2C(=O)O)cc([C@@H]2C[C@](C)(c3ccccc3)c3cc(C(=N)N)ccc3N2)c1 [Compound C, 3′-((2S,4R)-6-Carbamimidoyl-4-methyl-4-phenyl-1,2,3,4-tetrahydro-quinolin-2-yl)-4-carbamoyl-5′-(3-methyl-butyrylamino)-biphenyl-2-carboxylic acid] | barely showed any effect; also recorded: No effect | 26 µM | 0.8 µM | effect on TF-induced platelet aggregation at high dose (in words) ([1]; 40 μM): weak efficacy |
| CSCCNc1nc(SCCC(F)(F)F)nc2c1ncn2[C@@H]1O[C@H](COP(=O)(O)OP(=O)(O)C(Cl)(Cl)P(=O)(O)O)[C@@H](O)[C@H]1O [cangrelor, reference compound] | no effect |  |  |  |
| CS(=O)(=O)c1ccccc1-c1ccc(NC(=O)c2cc(C(F)(F)F)nn2-c2cccc(CN)c2)c(F)c1 [Compound B, 1-[3-(aminomethyl)phenyl]-N-[3-fluoro-2′-(methylsulfonyl)[1,1′-biphenyl]-4-yl]-3-(trifluoromethyl)-1H-pyrazole-5-carboxamide] |  |  | 0.4 µM |  |
| NCc1ccccc1-n1nc(C(F)(F)F)cc1C(=O)Nc1ccc(-c2ccccc2S(N)(=O)=O)cc1F [1-(2-aminomethylphenyl)-3-trifluoromethyl-N-[3-fluoro-2′-(aminosulfonyl)[1,1′-biphenyl)]-4-yl]-1H-pyrazole-5-carboxyamide] | dose-dependent effects |  |  |  |
| COc1cc([C@@H]2Nc3ccc(C(=N)N)cc3[C@H]3c4ccccc4C[C@H]32)c(-c2ccc(C(=O)O)cc2)cc1O [Compound A, 2′-((6R,6aR,11bR)-2-Carbamimidoyl-5,6a,7,11b-tetrahydro-6H-indeno[2,1-c]quinolin-6-yl)-5′-hydroxy-4′-methoxy-biphenyl-4-carboxylic acid] | concentration-dependent effect; also recorded: Dose-dependent effect | 1.25 µM | 1.1 µM | time delay of platelet aggregation ([1]; 1.26 μM): 175 s; time delay of platelet aggregation ([1]; 4.0 μM): 286 s; time delay of platelet aggregation ([1]; 12.6 μM): 671 s; time delay of platelet aggregation ([1]; 25.2 μM): 865 s |
